Measurements as given in ChEMBL document CHEMBL1124755, “Role of hydrogen bonding in ligand interaction with the N-methyl-D-aspartate receptor ion channel” (J Med Chem, 1990).

What follows are molecules tested against Glutamate NMDA receptor (assay: Evaluated for its affinity to bind PCP N-methyl-D-aspartate (NMDA) glutamate receptor in rat brain membrane using [3H]MK-801 as radioligand).
Assay type: cell membranes

SMILES | IC50 [nM]
C[C@]12Cc3ccccc3C[C@](C)(N1)c1ccccc12 | 30
c1ccc2c(c1)C[C@@H]1N[C@H](C2)c2ccccc21 | 640
C[C@]12N[C@H](Cc3ccccc31)Cc1ccccc12 | 140
C[C@]12N[C@](C)(c3ccccc31)c1ccccc12 | 24
CC12Cc3ccccc3[C@@H](N1)c1ccccc12 (mixture of isomers) | 260
CC1c2ccccc2C[C@H]2N[C@]1(C)c1ccccc12 (mixture of isomers) | 590
CC12Cc3ccccc3[C@H](Cc3ccccc31)N2 (mixture of isomers) | 690
C[C@]12Cc3ccccc3[C@@H]3[C@H](c4ccccc41)N32 (mixture of isomers) | > 100000
C[C@@]12Cc3ccccc3[C@@H](C=N1)c1ccccc12 (racemic) | > 100000
Cc1cccc2c1[C@H]1Cc3ccccc3[C@]2(C)N1 (racemic) | 3000
C[C@@]12Cc3ccc(Cl)cc3C[C@@H](N1)c1ccccc12 (racemic) | 190
CCCC[C@@]12Cc3ccccc3C[C@@](C)(N1)c1ccccc12 (racemic) | 3600
C[C@@]12Cc3ccc(O)cc3C[C@@H](N1)c1ccccc12 (racemic) | 140
COc1ccc2c(c1)C[C@H]1N[C@@](C)(C2)c2ccccc21 (racemic) | 220
C[C@@]12Cc3ccccc3C[C@@H](N1)c1cc(Br)ccc12 (racemic) | 270
Cc1ccc2c(c1)C[C@H]1N[C@]2(C)c2ccccc21 (racemic) | 640
C[C@]12Cc3ccccc3C[C@](O)(N1)c1ccccc12 (racemic) | 104
C[C@@]12Cc3ccccc3C[C@@H](N1)c1ccccc12 (racemic) | 86
CN1[C@@H]2Cc3ccccc3C[C@@]1(C)c1ccccc12 (racemic) | 530
C[C@@]12Cc3ccc(Br)cc3C[C@@H](N1)c1ccccc12 (racemic) | 320

SMILES | IC50 [nM]
C[C@@]12Cc3ccccc3C[C@@H](N1)c1ccc(Br)cc12 (racemic) | 140
Cc1ccc2c(c1)[C@@]1(C)N[C@@H]2Cc2ccccc21 (racemic) | 100
C[C@@]12N[C@@H](c3ccccc31)[C@H](O)c1ccccc12 (racemic) | 640
C[C@]12N[C@](C)(Cc3ccccc31)c1ccccc12 (racemic) | 35
C[C@]12Cc3ccccc3C[C@H](c3ccccc31)N2Cc1ccccc1 (racemic) | 23000
C[C@@]12Cc3ccccc3C[C@@H](N1)c1cc(Cl)ccc12 (racemic) | 250
CC[C@@]12Cc3ccccc3C[C@@H](N1)c1ccccc12 (racemic) | 1360
C[C@]12N[C@H](Cc3ccccc31)c1c2ccc2ccccc12 (racemic) | 2300
C[C@]12N[C@H](Cc3cc4ccccc4cc31)c1ccccc12 (racemic) | 89000
CCN1[C@@H]2Cc3ccccc3C[C@@]1(C)c1ccccc12 (racemic) | 2510
Cc1cccc2c1C[C@H]1N[C@]2(C)c2ccccc21 (racemic) | 800
C[C@]12Cc3ccccc3C[C@H](c3ccccc31)[N+]2(C)C (racemic) | 7100
C[C@@]12Cc3ccccc3C[C@@H](N1)c1c(Cl)cccc12 (racemic) | 1370
C[C@]12N[C@H](Cc3c1ccc1ccccc31)c1ccccc12 (racemic) | 5800
Cc1ccc2c(c1)[C@]1(C)N[C@H](C2)c2ccccc21 (racemic) | 32
Cc1ccc2c(c1)[C@H]1Cc3ccccc3[C@]2(C)N1 (racemic) | 440
C[C@]12N[C@H](Cc3ccccc31)c1cc3ccccc3cc12 (racemic) | 86000
C[C@@]12Cc3cc(Br)ccc3C[C@@H](N1)c1ccccc12 (racemic) | 79
C[C@@]12Cc3ccccc3C[C@@H](N1)c1ccccc12 (stereo in doubt; (+)-15) | 104
C[C@@]12Cc3ccccc3C[C@@H](N1)c1ccccc12 (stereo in doubt; (-)-15) | 106

What follows are molecules tested against Glutamate NMDA receptor (assay: Evaluated for its affinity to bind ion channel binding sites (phencyclidine or PCP receptor) on the N-methyl-D-aspartate glutamate receptor in rat brain membrane using [3H]MK-801 as radioligand).
Assay type: cell membranes

SMILES | IC50 [nM]
C[C@@]12Cc3ccccc3C(CN1)[C@@H](O)c1ccccc12 (mixture of isomers) | 8100
CC12Cc3ccccc3[C@@H](O)C(CN1)c1ccccc12 (mixture of isomers) | 950
C[C@@]12N[C@@](C)(c3ccccc31)C(O)c1ccccc12 (mixture of isomers; 13) | 65
C[C@@]12N[C@@](C)(c3ccccc31)C(O)c1ccccc12 (mixture of isomers; 14) | 6600
